Results taken from patent publication US12454530B2, “Amido cyclohexane acid derivatives as LPA receptor inhibitors” (CHIESI FARMACEUTICI S.P.A., priority 2020, dated 2025).

Key:
BSEP = BSEP (Homo sapiens (Human), UniProt O95342); experiment: BSEP inhibition: biliary clearance of Taurocolic Acid in sandwich-cultured human hepatocytes; assay type: in vitro ADME; details: sandwich-cultured cryopreserved human hepatocytes, probe Taurocolic Acid (TCA); 50 μM test compound, 10 μM TCA, human hepatocytes sandwich configuration
Procedure, shortened: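 Cryopreserved human hepatocytes were sandwich-cultured between collagen layers for 5 days, then incubated for 10 min at 37 °C in HBSS+ with 10 μM taurocholic acid, with or without 50 μM test compound. Bile content was released with Ca2+/Mg2+-free HBSS and quantified by HPLC-MS/MS. Inhibition is the percent reduction in TCA biliary clearance.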

[1] = biological target: human recombinant LPA1 expressed in CHO cells (Homo sapiens (Human), UniProt Q92633); experiment: LPA1 antagonist FLIPR calcium assay in CHO-hLPA1 cells; assay type: cell-based; details: range of activity; CHO-hLPA1, LPA EC80, Ca2+ mobilization; read-out: LPA1 IC50
Procedure, shortened: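 CHO cells expressing human LPA1 loaded with Cal-520 AM (5 μM, with 2.5 mM probenecid) 30 min at 37 °C. Baseline-subtracted peak fluorescence on FLIPR converted to % inhibition; pIC50 from four-parameter logistic fit.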

[2] = Permeability on Caco-2 cells monolayers; assay type: in vitro ADME; details: human, with Elacridar 10 µM (PgP inhibitor), Papp A>B with PgP inhibitor Elacridar, 10 μM compound, read-out: Passive Permeability
Protocol: Even more advantageously, the compounds of formula (I) of the present invention are also endowed with a good permeability profile that, in its turn, can ensure a suitable bioavailability for an oral administration. The permeability was assessed in human Caco 2 cell line, an in vitro model that mimic human gastrointestinal barrier and so useful to predic oral absorption.
The permeability of the compounds of the present invention was evaluated performing the assay on Caco-2 cells monolayers (human colon adenocarcinoma immortalized cell) by measuring the transport of compound (absorption and secretion) in both directions: apical to basolateral direction (A>B) and basolateral to apical (B>A) with and without PgP inhibitor (Elacridar).
The cells, purched from ReadyCell in 96 well format (Cod. KRECE-CCR50), were cultured by the supplier for 21 day on transwell supports in DMEM 1 g/L glucose culture medium supplemented with Fetal Bovin Sierum (10%), Glutamine 200 mM (1%) and Penicillin 10000 U/ml-10 mg/ml Streptomycin (1%).
On day 21 of colture, cell monolayers integrity was verified by measuring the trans-epithelial electric resistance (TEER) using the EVOM equipment (Endohm, WPI, Germany) and studying the apparent permeability (Papp) of reference compounds (Sulpiride and Metoprolol). Furthermore, as a control, the Talinolol 10 uM (Pgp efflux substrate) with and without Elacridar in both directions was used.
The sample solution was prepared dissolving test compound in DMSO at the concentration of 10 mM and then diluted in the Assay Buffer (Hank's Balance Salt Solution) warmed at 37° C. before use, to give the 10 μM Compound working solution with and without 10 μM Elacridar. These working solutions were added to donor compartment (apical for A>B direction and basolateral for B>A direction) and Assay Buffer (Hank's Balance Salt Solution) to the receiver compartment (basolateral for A>B direction and apical for B>A direction). The plate was incubated at 37° C. for 120 min, all incubation were conducted in triplicates. At the end of incubation, samples from donor and receiver compartments were collected for HPLC-MS/MS analyses.
The permeability coefficients (Papp) in both directions: apical to basolateral (A>B) and basolateral to apical (B>A) with and without PgP inhibitor (Elacridar) was calculated in nm/sec, using the following equation:
[formula] • where: • Cr=measured concentration in the receiver well at the time t (expressed as IS ratio) • Vr=volume of the receiver well (ml) • t=time (sec) • A=membrane surface area (cm^2) • C0=initial donor concentration • Passive Papp is considered Papp A>B with PgP inhibitor Elacridar.

human recombinant LPA1 expressed in CHO cells, sequence (Q92633 whole entry): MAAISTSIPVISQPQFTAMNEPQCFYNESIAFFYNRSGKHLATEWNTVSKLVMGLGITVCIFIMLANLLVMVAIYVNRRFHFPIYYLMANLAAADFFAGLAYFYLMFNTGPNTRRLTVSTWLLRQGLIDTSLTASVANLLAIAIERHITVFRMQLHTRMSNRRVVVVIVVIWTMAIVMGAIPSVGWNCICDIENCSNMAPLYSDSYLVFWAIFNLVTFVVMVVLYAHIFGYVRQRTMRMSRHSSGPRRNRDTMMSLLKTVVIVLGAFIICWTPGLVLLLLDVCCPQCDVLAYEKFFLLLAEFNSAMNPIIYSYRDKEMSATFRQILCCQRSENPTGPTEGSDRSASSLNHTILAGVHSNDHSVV
BSEP, sequence (O95342 whole entry): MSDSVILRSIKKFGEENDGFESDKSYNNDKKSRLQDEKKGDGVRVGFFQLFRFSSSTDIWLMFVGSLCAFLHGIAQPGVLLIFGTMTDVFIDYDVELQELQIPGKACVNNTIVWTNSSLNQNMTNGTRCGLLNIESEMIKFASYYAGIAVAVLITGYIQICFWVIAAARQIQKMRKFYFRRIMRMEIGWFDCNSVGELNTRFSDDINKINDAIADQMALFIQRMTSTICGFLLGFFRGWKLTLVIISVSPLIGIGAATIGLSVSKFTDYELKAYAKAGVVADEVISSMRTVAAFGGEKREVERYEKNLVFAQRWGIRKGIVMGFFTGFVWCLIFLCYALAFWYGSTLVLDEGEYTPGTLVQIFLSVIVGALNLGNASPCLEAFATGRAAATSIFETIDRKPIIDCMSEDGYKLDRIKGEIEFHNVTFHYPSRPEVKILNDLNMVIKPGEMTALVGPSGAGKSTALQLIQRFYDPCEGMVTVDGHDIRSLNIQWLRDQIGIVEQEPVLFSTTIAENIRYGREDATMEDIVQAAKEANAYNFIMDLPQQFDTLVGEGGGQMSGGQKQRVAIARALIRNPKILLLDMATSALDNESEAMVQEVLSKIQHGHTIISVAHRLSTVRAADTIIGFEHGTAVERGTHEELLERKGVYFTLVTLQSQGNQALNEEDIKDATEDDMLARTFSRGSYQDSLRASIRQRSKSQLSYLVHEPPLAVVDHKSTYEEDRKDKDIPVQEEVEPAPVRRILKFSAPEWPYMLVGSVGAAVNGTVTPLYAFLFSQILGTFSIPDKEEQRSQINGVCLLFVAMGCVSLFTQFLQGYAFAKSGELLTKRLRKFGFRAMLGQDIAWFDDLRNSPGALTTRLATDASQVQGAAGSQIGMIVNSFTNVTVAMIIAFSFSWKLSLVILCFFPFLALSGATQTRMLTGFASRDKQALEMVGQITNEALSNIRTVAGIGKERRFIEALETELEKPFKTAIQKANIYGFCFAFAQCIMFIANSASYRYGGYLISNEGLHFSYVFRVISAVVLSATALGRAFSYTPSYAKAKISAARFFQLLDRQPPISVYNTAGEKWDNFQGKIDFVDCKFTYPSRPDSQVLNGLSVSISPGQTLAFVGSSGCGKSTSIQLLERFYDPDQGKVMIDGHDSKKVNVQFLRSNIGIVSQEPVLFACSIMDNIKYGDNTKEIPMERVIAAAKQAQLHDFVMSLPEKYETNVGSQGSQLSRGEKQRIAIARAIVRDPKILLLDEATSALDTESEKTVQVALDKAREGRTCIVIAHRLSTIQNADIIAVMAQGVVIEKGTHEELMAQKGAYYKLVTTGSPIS

In the case of COc1ccccc1[C@@H](C)OC(=O)Nc1c(C)noc1-c1ccc(NC(=O)[C@H]2CCCC[C@@H]2C(=O)O)c(C)n1 [Example 38, (1S,2S)-2-((6-(4-((((R)-1-(2-methoxyphenyl)ethoxy)carbonyl)amino)-3-methylisoxazol-5-yl)-2-methylpyridin-3-yl)carbamoyl)cyclohexane-1-carboxylic acid], the inhibition at 10 min, 50 μM (BSEP) is reported as at most 50%, the IC50 [1] is reported as 50 to 250 nM and the Papp at 120 min, 10 µM [2] is reported as at least 1.5 ×10⁻⁶ cm/s.

Cc1nc(-c2nnn(C)c2NC(=O)O[C@H](C)C2CCCC2)ccc1NC(=O)[C@H]1CCCC[C@@H]1C(=O)O [Example 46, (1S,2S)-2-((6-(5-((((R)-1-cyclopentylethoxy)carbonyl)amino)-1-methyl-1H-1,2,3-triazol-4-yl)-2-methylpyridin-3-yl)carbamoyl)cyclohexane-1-carboxylic acid] showed an inhibition at 10 min, 50 μM (BSEP) of at most 50%, an IC50 [1] of 50 to 250 nM and a Papp at 120 min, 10 µM [2] of at least 1.5 ×10⁻⁶ cm/s.

Work on Cc1nc(-c2cnn(C)c2NC(=O)O[C@H](C)c2ccccc2F)ccc1NC(=O)[C@H]1CCCC[C@@H]1C(=O)O [Example 50, (1S,2S)-2-((6-(5-((((R)-1-(2-fluorophenyl)ethoxy)carbonyl)amino)-1-methyl-1H-pyrazol-4-yl)-2-methylpyridin-3-yl)carbamoyl)cyclohexane-1-carboxylic acid] yielded an inhibition at 10 min, 50 μM (BSEP) of at most 50%, an IC50 [1] of 50 to 250 nM and a Papp at 120 min, 10 µM [2] of at least 1.5 ×10⁻⁶ cm/s.

Compound Cc1nc(-c2onc(C)c2NC(=O)O[C@H](C)C2CCCC2)ccc1NC(=O)[C@H]1CCCC[C@@H]1C(=O)O [Example 26, (1S,2S)-2-((6-(4-((((R)-1-cyclopentylethoxy)carbonyl)amino)-3-methylisoxazol-5-y1)-2-methylpyridin-3-yl)carbamoy1)cyclohexane-1-carboxylic acid] has an inhibition at 10 min, 50 μM (BSEP) of at most 50%, an IC50 [1] of under 50 nM and a Papp at 120 min, 10 µM [2] of at least 1.5 ×10⁻⁶ cm/s.

For Cc1noc(-c2ccc(NC(=O)[C@H]3CCCC[C@@H]3C(=O)O)cn2)c1NC(=O)O[C@H](C)c1ccccc1F [Example 34, (1S,2S)-2-((6-(4-((((R)-1-(2-fluorophenyl)ethoxy)carbonyl)amino)-3-methylisoxazol-5-yl)pyridin-3-yl)carbamoyl)cyclohexane-1-carboxylic acid], the inhibition at 10 min, 50 μM (BSEP) was at most 50%, the IC50 [1] was under 50 nM and the Papp at 120 min, 10 µM [2] was at least 1.5 ×10⁻⁶ cm/s.

Cc1noc(-c2ccc(NC(=O)[C@H]3CCCC[C@@H]3C(=O)O)cn2)c1NC(=O)O[C@H](C)c1ccccc1C(F)(F)F [Example 36, (1S,2S)-2-((6-(3-methyl-4-((((R)-1-(2-(trifluoromethyl)phenyl)ethoxy)carbonyl)amino)isoxazol-5-yl)pyridin-3-yl)carbamoyl)cyclohexane-1-carboxylic acid] showed an inhibition at 10 min, 50 μM (BSEP) of at most 50%, an IC50 [1] of 50 to 250 nM and a Papp at 120 min, 10 µM [2] of at least 1.5 ×10⁻⁶ cm/s.

Cc1noc(-c2ccc(NC(=O)[C@H]3CCCC[C@@H]3C(=O)O)cn2)c1NC(=O)OCc1ccccc1Cl [Example 35, (1S,2S)-2-((6-(4-((((2-chlorobenzyl)oxy)carbonyl)amino)-3-methylisoxazol-5-yl)pyridin-3-yl)carbamoyl)cyclohexane-1-carboxylic acid] gave an inhibition at 10 min, 50 μM (BSEP) of at most 50%, an IC50 [1] of 50 to 250 nM and a Papp at 120 min, 10 µM [2] of at least 1.5 ×10⁻⁶ cm/s.
